Assay results reported in PMC3249837 (ACS chemical neuroscience, 2011).

Test system: PS1ΔE9
Format: binding
Settings: competitor at 10 µM, probes at 200 nM

CC(C)CC[C@H](c1ccc(Cl)cc1)N1CC[C@@H](CC(=O)O)C[C@H]1c1ccc(C(F)(F)F)cc1 [Compound 1]
Competition of probe 4 and 5 labeling of PS1ΔE9 proteoliposomes: blocked
